Reference: PMC13046382, “Peptidoglycan recycling is critical for cell division, cell wall integrity, and β-lactam resistance in Caulobacter crescentus” (eLife, 2026)

How the values were obtained:
PBP3 = biological target: T1, PBP3 (Caulobacter vibrioides, UniProt B8H0A0); experiment: competition with bocillin-FL labelling, SDS-PAGE fluorescence; format: cell-based; settings: covalent, crude membranes in PBS
T1 construct: gene ftsI; native protein in crude membrane fraction, gel band
T1 sequence (B8H0A0 1-589): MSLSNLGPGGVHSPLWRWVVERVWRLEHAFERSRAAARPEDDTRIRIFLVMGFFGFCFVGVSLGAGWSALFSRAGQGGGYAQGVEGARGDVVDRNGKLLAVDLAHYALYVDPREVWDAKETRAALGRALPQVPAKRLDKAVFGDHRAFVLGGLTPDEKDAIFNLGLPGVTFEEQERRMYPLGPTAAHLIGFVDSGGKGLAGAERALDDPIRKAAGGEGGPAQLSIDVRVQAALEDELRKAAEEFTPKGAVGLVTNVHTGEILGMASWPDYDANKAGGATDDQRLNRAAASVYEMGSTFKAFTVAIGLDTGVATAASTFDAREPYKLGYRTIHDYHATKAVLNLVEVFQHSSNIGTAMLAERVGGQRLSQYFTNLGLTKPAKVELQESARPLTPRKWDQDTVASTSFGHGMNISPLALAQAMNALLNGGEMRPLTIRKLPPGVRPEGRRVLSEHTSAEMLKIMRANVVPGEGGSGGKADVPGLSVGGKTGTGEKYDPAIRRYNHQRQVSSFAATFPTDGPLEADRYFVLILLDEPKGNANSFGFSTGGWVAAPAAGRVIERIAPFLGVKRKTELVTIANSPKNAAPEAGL

CrbA = biological target: T2, CrbA (Caulobacter vibrioides, UniProt A0A0H3C8K5); experiment: as above; format: cell-based; settings: covalent; crude membranes in PBS, 1-100 µg/mL ampicillin for 2 hr at room temperature, active-site serine
T2 construct: native protein in crude membrane fraction, gel band

AmiR = biological target: T3, AmiR (Caulobacter vibrioides, UniProt A0A0H3CAA9); experiment: HPLC of reaction products; format: biochemical; settings: 20 mM HEPES-NaOH, 50 mM NaCl, 1 mM MgCl2, pH 7.5, 37 °C, 16 hr; mixture of anhydro-muropeptides from Slt70-digested sacculi
T3 construct: gene CCNA_02650; His6-SUMO fusion expressed in E. coli Rosetta(DE3)pLysS, tag cut by SUMO protease

NagZ = biological target: T4, NagZ (Caulobacter vibrioides, UniProt A0A0H3C9G9); experiment: preincubation with NagZ, then coupled AmiR step and LC-MS; format: biochemical; settings: 10 µM NagZ, 50 mM HEPES, 200 mM NaCl, 10% glycerol, pH 7.2, 37 °C, 16 hr
T4 construct: gene CCNA_02085; His6-SUMO fusion expressed in E. coli Rosetta(DE3)pLysS, tag cut by SUMO protease
T4 sequence (A0A0H3C9G9 entry or part of it): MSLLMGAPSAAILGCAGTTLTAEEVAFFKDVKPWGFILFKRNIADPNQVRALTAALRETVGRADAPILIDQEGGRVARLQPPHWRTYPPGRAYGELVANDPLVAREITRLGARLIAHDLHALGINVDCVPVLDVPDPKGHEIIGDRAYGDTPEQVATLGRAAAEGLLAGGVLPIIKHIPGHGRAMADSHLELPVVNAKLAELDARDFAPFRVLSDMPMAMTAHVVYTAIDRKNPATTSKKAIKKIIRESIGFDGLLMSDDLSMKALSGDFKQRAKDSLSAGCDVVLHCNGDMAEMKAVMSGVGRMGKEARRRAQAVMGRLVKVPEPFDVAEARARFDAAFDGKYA

T3 sequence (A0A0H3CAA9 entry or part of it): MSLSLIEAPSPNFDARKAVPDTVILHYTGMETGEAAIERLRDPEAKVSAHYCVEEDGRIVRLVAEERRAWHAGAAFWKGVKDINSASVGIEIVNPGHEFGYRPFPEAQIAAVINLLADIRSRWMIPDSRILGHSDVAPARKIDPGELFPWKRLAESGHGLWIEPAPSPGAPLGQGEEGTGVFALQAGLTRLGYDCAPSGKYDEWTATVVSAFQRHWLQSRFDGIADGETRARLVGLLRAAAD
T2 sequence (A0A0H3C8K5 entry or part of it): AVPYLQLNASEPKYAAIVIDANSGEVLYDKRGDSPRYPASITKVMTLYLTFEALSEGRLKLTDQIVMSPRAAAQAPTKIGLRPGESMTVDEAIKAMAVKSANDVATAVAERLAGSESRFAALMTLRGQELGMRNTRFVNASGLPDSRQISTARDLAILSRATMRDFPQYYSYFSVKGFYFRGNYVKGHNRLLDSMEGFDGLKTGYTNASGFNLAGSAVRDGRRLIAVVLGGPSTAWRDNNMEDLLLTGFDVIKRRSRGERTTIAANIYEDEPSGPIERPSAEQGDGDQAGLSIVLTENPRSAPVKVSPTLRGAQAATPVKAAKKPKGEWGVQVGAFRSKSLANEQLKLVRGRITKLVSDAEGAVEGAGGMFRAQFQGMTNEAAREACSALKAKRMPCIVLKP

With `CC1=C(C(=O)O)N2C(=O)[C@@H](NC(=O)[C@H](N)c3ccccc3)[C@H]2SC1` [cephalexin] the “competition with bocillin-FL labelling, SDS-PAGE fluorescence” value (from here on “competition with bocillin-FL labelling”) (PBP3; 5 µg/mL cefalexin for 2 hr at room temperature) was “The labeling of PBP3 and some bifunctional PBPs was also abolished by preincubation with cephalexin”.

With `CC1(C)S[C@@H]2[C@H](NC(=O)[C@H](N)c3ccccc3)C(=O)N2[C@H]1C(=O)O` [ampicillin] the “competition with bocillin-FL labelling” value (PBP3; 1-100 µg/mL ampicillin for 2 hr at room temperature, active-site serine) was “Among the ampicillin targets identified were the essential, cell division-specific monofunctional transpeptidase PBP3” and the “competition with bocillin-FL labelling” value (CrbA) was “all but one of them (PbpX) remained unlabeled”.

`CC(=O)N[C@H]1[C@H](O[C@H]2[C@H](O[C@H](C)C(=O)N[C@@H](C)C(=O)N[C@H](CCC(=O)N[C@@H](CCC[C@@H](N)C(=O)O)C(=O)N[C@H](C)C(=O)O)C(=O)O)[C@@H](NC(C)=O)[C@@H]3OC[C@H]2O3)O[C@H](CO)[C@@H](O)[C@@H]1O` [GlcNAc–anhMurNAc-tetrapeptide] was tested, and the “HPLC of reaction products” value (AmiR) was “AmiR efficiently hydrolyzed tetrapeptide-containing fragments” and the “preincubation with NagZ, then coupled AmiR step and LC-MS” value (NagZ) was “substrate anhMurNAc-tetrapeptide, generated by preincubating purified GlcNAc–anhMurNAc-tetrapeptide with NagZ”.
